In paper PMC9404985, “Development of Dicationic Bisguanidine-Arylfuran Derivatives as Potent Agents against Gram-Negative Bacteria” (Antibiotics, 2022):

Columns and labels:
[1] = tested on: A. baumannii (CCUG #57250); assay: Antibacterial activity against isolates (Omnilog, Biolog redox dye); format: cell-based, Acinetobacter baumannii; conditions: for EC90 / EC50: ca-MH broth, 24 h, 37 °C; for EC50: CCUG57250; for Selectivity index A. baumannii (CCUG #57250): SI = ((EC50 MCF-7 + EC50 HepG2)/2)/EC50 bacterial strain
Method: (§1) The antibacterial activities of eight compounds (1, 3, 4, 6, 8, 10, 16, and 17) were tested against 10 different isolates of Gram-negative bacteria from human and other sources, two E. coli (CCUG #67180 and CCUG #17620/ATCC #25922, control strain), two K. pneumoniae (CCUG #58547 and CCUG #225T), two P. aeruginosa (CCUG #17619 and CCUG #59347), two A. baumannii (CCUG #57035 and CCUG #57250), E. cloacae (CCUG #6323T), and E. hormaechei (CCUG #58962) in a 96-well plate format. The compounds to test were 3-fold diluted in six steps in cation-adjusted Mueller-Hinton (ca-MH) broth to final concentrations spanning from 30 to 0.12 µM, i.e., a 1667–416,667 times dilution from the 50 mM stocks. Bacterial mass from the ten isolates grown overnight on horse blood or Mueller–Hinton agar plates was suspended in ca-MH and adjusted to a final inoculum cell density of ~5 × 10^5 CFU/mL. For all assays, Biolog redox dye A diluted 100× from the stock solution was used for measurements of all ten isolates (up to a total volume of 120 µL per well). All plates included one well per isolate with only inoculum and dye but no test compound (i.e., positive control) and one well per isolate with inoculum, dye and DMSO diluted 1667×, corresponding to the DMSO concentration in the wells with the highest concentration of test compound. All measurements were performed using the Omnilog microplate reader (Biolog, Hayward, CA, USA) where the 96-well plates were read at 15 min intervals for a total of 24 h at 37 °C.

[2] = tested on: E. coli (CCUG #17620/ ATCC #25922); assay: as above; format: cell-based, Escherichia coli; conditions: for EC50 / EC90: Escherichia coli, ca-MH broth, 24 h, 37 °C; for Selectivity index E. coli (CCUG #17620/ ATCC #25922): SI = ((EC50 MCF-7 + EC50 HepG2)/2)/EC50 bacterial strain
Method: as §1

[3] = tested on: E. coli (CCUG #67180); assay: as above; format: cell-based, Escherichia coli; conditions: for EC50 / EC90: Escherichia coli, ca-MH broth, 24 h, 37 °C; for EC50: CCUG67180; for Selectivity index E. coli (CCUG #67180): SI = ((EC50 MCF-7 + EC50 HepG2)/2)/EC50 bacterial strain; for EC90: CCUG67180, 24 h
Method: as §1

[4] = Cytotoxicity assay (PrestoBlue) HepG2; format: cell-based; conditions: human, HepG2 cells (hepatoma cell line), 24 h incubation
Method: The cytotoxicity levels of all compounds were evaluated against human Michigan Cancer Foundation-7 (MCF-7) and Hepatoma G2 cell line (HepG2) cell lines. MCF-7 is an extensively characterized breast cancer cell line isolated in 1970 [41], while HepG2 cells were derived from a hepatoma in 1975 [42]. Both cell lines grow robustly during in vitro culture and have been widely used for cytotoxicity testing. Cells of hepatic origin, such as HepG2, are of particular relevance for toxicity studies as many drugs accumulate in the liver during metabolic conversion. Cells were grown in Dulbecco’s Modified Eagle Medium supplemented with 10% fetal calf serum and kept in exponential growth, as previously reported. Before the assay, cells were reseeded into 96-well microtiter plates at a density allowing continued exponential growth and let to settle for 24 h. The compounds were added from a stock solution in DMSO, for a final concentration of 0.3% v/v of the solvent in the culture medium. After 24 h of incubation in presence of the compound, cell viability was assayed using PrestoBlue Cell Viability Reagent (resazurin-based solution, ThermoFisher, Waltham, MA, USA) according to the manufacturer’s instructions. […] Each assay contained a DMSO control at the equivalent starting concentration, positive control (uninhibited cell growth) and negative control (cell medium only). Survival was expressed as percentage of the solvent-only control. […] The Selectivity Index (SI) for each compound and bacterial strain was calculated as the ratio between the mean of the EC50 values for the two human cell lines and the EC50 for the bacterial strain in question ((EC50 MCF-7 + EC50 HepG2)/2)/EC50 bacterial strain).

[5] = tested on: E. coli MG1655 (CGSC #6300); assay: Antibacterial resazurin assay, laboratory strain; conditions: for EC50 / EC90: Escherichia coli, MG1655, 18 h; for EC50: read-out: Eco EC50; for EC90: read-out: Eco EC90; for Selectivity index E. coli: mean of MCF-7 and HepG2 EC50 over bacterial EC50, laboratory strain
[6] = tested on: A. baumannii (CCUG #57035); assay: Antibacterial activity against isolates (Omnilog, Biolog redox dye); format: cell-based, Acinetobacter baumannii; conditions: for EC50 / EC90: Acinetobacter baumannii, CCUG57035, ca-MH broth, 24 h, 37 °C; for Selectivity index A. baumannii (CCUG #57035): SI = ((EC50 MCF-7 + EC50 HepG2)/2)/EC50 bacterial strain
Method: as §1, with “The compounds to test were 3-fold diluted in six steps in cation-adjusted Mueller-Hinton (ca-MH) broth to final concentrations spanning from 30 to 0.12 µM, i.e., a 1667–416,667 times dilution from the 50 mM stocks.” left out

[7] = tested on: E. cloacae (CCUG #6323T); assay: as above; format: cell-based, Enterobacter cloacae; conditions: for EC50 / EC90: Enterobacter cloacae, ca-MH broth, 24 h, 37 °C; for Selectivity index E. cloacae (CCUG #6323T): SI = ((EC50 MCF-7 + EC50 HepG2)/2)/EC50 bacterial strain
Method: as §1

[8] = tested on: P. aeruginosa (CCUG #59347); assay: as above; format: cell-based, Pseudomonas aeruginosa; conditions: for EC50 / EC90: Pseudomonas aeruginosa, CCUG59347, ca-MH broth, 24 h, 37 °C; for Selectivity index P. aeruginosa (CCUG #59347): SI = ((EC50 MCF-7 + EC50 HepG2)/2)/EC50 bacterial strain
Method: as §1, with “The compounds to test were 3-fold diluted in six steps in cation-adjusted Mueller-Hinton (ca-MH) broth to final concentrations spanning from 30 to 0.12 µM, i.e., a 1667–416,667 times dilution from the 50 mM stocks.” left out

[9] = Acinetobacter baumannii, CCUG57250, 24 h

| Structure (SMILES) | EC90 [1, 9] | EC50 ([1]; Acinetobacter baumannii) | EC50 [2] | EC90 [2] | Selectivity index E. coli (CCUG #17620/ ATCC #25922) [2] | EC50 [3] | Selectivity index E. coli (CCUG #67180) [3] | EC50 at 24 h [4] | EC50 [5] | EC90 [5] | Selectivity index E. coli [5] | EC50 [6] | EC90 [6] | EC50 [7] | EC90 [7] | Selectivity index E. cloacae (CCUG #6323T) [7] | EC50 [8] | EC90 [8] | Selectivity index P. aeruginosa (CCUG #59347) [8] | EC90 [3] | further results |
| --- | --- | --- | --- | --- | --- | --- | --- | --- | --- | --- | --- | --- | --- | --- | --- | --- | --- | --- | --- | --- | --- |
| N=C(N)Nc1ccc(-c2ccc(-c3ccc(NC(=N)N)cc3)o2)cc1 [Compound 3] | 2.4 µM | 1.7 µM | 1.6 µM | 2.2 µM | 76.6 | 5.3 µM | 23.7 | 185 µM | 80.4 µM | 174 µM | 1.5 | 1.6 µM | 2.4 µM | 1.5 µM | 2.5 µM | 83.1 | 5.2 µM | 8.1 µM | 24.1 |  | EC90 [1]: 2.3 µM |
| Cc1cc(NC(=N)N)ccc1-c1ccc(-c2ccc(NC(=N)N)cc2C)o1 [Compound 4, 2,5-Bis(4-guanidino-2-methylphenyl)furan] | 22.5 µM | 15.8 µM | 11.3 µM | 18.3 µM | 6.7 | 23.1 µM | 3.3 | 51.3 µM | 48.9 µM | 80.8 µM | 1.5 | 16 µM | 23.5 µM | 3.7 µM | 7.4 µM | 20.7 | 66.8 µM | 77 µM | 1.1 | 25.3 µM | Selectivity index A. baumannii (CCUG #57250) [1]: 4.8; Selectivity index A. baumannii (CCUG #57035) [6]: 4.7 |
| COc1cc(NC(=N)N)ccc1-c1ccc(-c2ccc(NC(=N)N)cc2OC)o1 [Compound 6, 2,5-Bis(4-guanidino-2-methoxyphenyl)furan] | 8.8 µM | 7.6 µM | 6.2 µM | 7.5 µM | 23.1 | 63.4 µM | 2.3 | 213 µM | 35.7 µM | 76.3 µM | 4.0 | 6.8 µM | 11 µM | 5.3 µM | 8.4 µM | 27.4 | 54.8 µM | 65.3 µM | 2.6 | 74.4 µM | Selectivity index A. baumannii (CCUG #57250) [1]: 19.0; Selectivity index A. baumannii (CCUG #57035) [6]: 21.3 |
| COC(=O)c1cc(NC(=N)N)ccc1-c1ccc(-c2ccc(NC(=N)N)cc2C(=O)OC)o1 [Compound 8, 2,5-Bis(4-guanidino-2-(methylcarboxy)phenyl)furan] | 5.1 µM | 4.4 µM | 6 µM | 8.2 µM | 40.5 | 53.4 µM | 4.6 | 405 µM | 95.4 µM | 129 µM | 2.5 | 5.2 µM | 7 µM | 4.8 µM | 7.1 µM | 50.8 | > 200 µM | > 200 µM |  | 67.5 µM | Selectivity index A. baumannii (CCUG #57250) [1]: 55.3; Selectivity index A. baumannii (CCUG #57035) [6]: 47.2 |
| N=C(N)NCc1ccc(-c2ccc(-c3ccc(CNC(=N)N)cc3)o2)cc1 [Compound 10, 2,5-Bis(4-guanidinomethylphenyl)furan] | > 200 µM | > 200 µM | 151 µM | 179 µM | 0.6 | 188 µM | 0.5 | 137 µM | 73.2 µM | 108 µM | 1.3 | > 200 µM | > 200 µM | 12.4 µM | 24.7 µM | 7.5 | > 200 µM | > 200 µM |  | > 200 µM |  |
| N=C(N)Nc1ccc(-c2ccc(C(=O)N3CCc4cc(NC(=N)N)ccc43)o2)c(Cl)c1 [Compound 16, (5-(2-chloro-4-guanidinophenyl)furan-2-yl)(5-guanidinoindolin-1-yl)methanone] | 12.5 µM | 12.5 µM | 13.6 µM | 19.7 µM | 15.4 | 23 µM | 9.1 | 241 µM | 13.1 µM | 19 µM | 16.0 | 16.5 µM | 24.4 µM | 3.5 µM | 7.9 µM | 60.1 | 18.1 µM | 24 µM | 11.5 | 27.1 µM | Selectivity index A. baumannii (CCUG #57250) [1]: 16.7; Selectivity index A. baumannii (CCUG #57035) [6]: 12.7 |
| N=C(N)Nc1ccc(-c2ccc(C(=O)N3CCc4cc(NC(=N)N)ccc43)o2)cc1 [Compound 17, (5-(4-guanidinophenyl)furan-2-yl)(5-guanidinoindolin-1-yl)methanone] | 90.3 µM | 61.8 µM | 16.4 µM | 24 µM | 11.8 | 14.2 µM | 13.7 | 239 µM | 1.7 µM | 4.3 µM | 114.3 | 148 µM | > 200 µM | 5.6 µM | 8.6 µM | 34.8 | 17 µM | 23.9 µM | 11.4 | 19.9 µM | Selectivity index A. baumannii (CCUG #57250) [1]: 3.1; Selectivity index A. baumannii (CCUG #57035) [6]: 1.3 |
